How the values were obtained:
Set-up in all cases: key: 5: Withered; 4.5: Herbicidal effect (or phytotoxicity) in a range of 90 to 99%; 4: Herbicidal effect (or phytotoxicity) in a range of 80 to 89%; 3.5: Herbicidal effect (or phytotoxicity) in a range of 70 to 79%; 3: Herbicidal effect (or phytotoxicity) in a range of 60 to 69%; 2.5: Herbicidal effect (or phytotoxicity) in a range of 50 to 59%; 2: Herbicidal effect (or phytotoxicity) in a range of 40 to 49%; 1.5: Herbicidal effect (or phytotoxicity) in a range of 30 to 39%; 1: Herbicidal effect (or phytotoxicity) in a range of 20 to 29%; 0.5: Herbicidal effect (or phytotoxicity) in a range of 1 to 19%; 0: No herbicidal effect (or no phytotoxicity)
monochoria = test: Test Example 1: herbicidal test by water treatment in a paddy field; type: in vivo, Monochoria vaginalis Presl; conditions: evaluated thirty days after application
Description: (§1) Into each porcelain pot having a diameter of 10 cm, paddy soil was filled and puddled, and seeds of barnyardgrass (Echinochloa crus-galli L.), smallflower flatsedge, monochoria and Japanese bulrush were sown, and water was filled in a-depth of 3 cm. One day later, a predetermined amount of the wettable powder prepared in Formulation Example 3 and diluted with water was dropwise applied to the surface of the water (dose of the active ingredient: 4 kg/hectare). Thereafter, they were grown in a green house. Thirty days after the application, the herbicidal effects were evaluated in accordance with the standards as identified in Table 5.

Japanese bulrush = test: as above; type: in vivo, Scir^pus juncoides Roxb.; conditions: evaluated thirty days after application
Description: as §1

barnyardgrass = test: Test Example 3: herbicidal test by upland soil treatment; type: in vivo, Echinochloa crus-galli L.; conditions: evaluated twenty days after application
Description: (§2) Into each plastic pot of 600 cm^2, upland soil was filled, then seeds of barnyardgrass, crabgrass, green foxtail, redroot pigweed, rice flatsedge, rice, wheat, maize, soybean, cotton and sugar beet were sown, and they were covered with soil. A predetermined amount of the wettable powder prepared from the test compound in accordance with Formulation Example 3 and diluted with water, was uniformly applied to the surface of the soil at an application rate of 1000 liter/hectare by means of a small size spray. They were grown in a greenhouse, and twenty days after the application, the herbicidal effects and phytotoxicity were evaluated in accordance with the standards as identified in Table 5.

crabgrass [1] = test: as above; type: in vivo, Digitaria sanquinalis L.; conditions: evaluated twenty days after application
Description: as §2

crabgrass [2] = test: Test Example 4: herbicidal test by upland foliage treatment; type: in vivo, Digitaria sanquinalis L.
Description: Into each plastic pot of 120 cm^2, upland soil was filled, then seeds of barnyardgrass, crabgrass, redroot pigweed and rice flatsedge were sown, and they were grown in a greenhouse until barnyardgrass. reached 3-leaf stage. Each wettable powder prepared from the test compound in accordance with Formulation Example 3 was diluted with water to give the amount of the active ingredient corresponding to 4 kg/hectare, and the diluted solution was uniformly sprayed at an application rate of 1000 liter/hectare from the top of plants by means of a small size spray, when barnyardgrass was in the 3-leaf stage. They were grown in a greenhouse, and twenty days after the application, the herbicidal effects were evaluated in accordance with the standards as identified in Table 5.

[3] = dose of the active ingredient 4 kg/hectare, wettable powder applied to water surface one day after sowing
[4] = active ingredient 4 kg/hectare, foliage spray 1000 liter/hectare at 3-leaf stage of barnyardgrass, twenty days after application
[5] = water treatment in paddy field pot, dose of active ingredient 4 kg/hectare
[6] = upland foliage treatment, 4 kg/hectare active ingredient, sprayed at 1000 liter/hectare at barnyardgrass 3-leaf stage, evaluated twenty days after application

CN(C)C(=O)NOc1cc(Cl)ccc1Cl [Compound No. 1, 3-(2,5-Dichlorophenoxy)-1,1-dimethyl urea]
Herbicidal effects Monochoria (monochoria; [3]): 5 | Herbicidal effects Japanese bulrush (Japanese bulrush; [3]): 5 | Herbicidal effects Barnyard-grass (barnyardgrass; Dose 1 kg/HA): 5 | Herbicidal effects Barnyard-grass (barnyardgrass; Dose 4 kg/HA): 5 | Herbicidal effects Crab-grass (crabgrass [1]; Dose 1 kg/HA): 5 | Herbicidal effects Crab-grass (crabgrass [1]; Dose 4 kg/HA): 5 | Herbicidal effects Crabgrass (crabgrass [2]; [4]): 4 (Herbicidal effect (or phytotoxicity) in a range of 80 to 89%)

CC(C)N(C)C(=O)NOc1cc(Cl)cc(Cl)c1 [Compound No. 186, 3-(3,5-Dichlorophenoxy)-1-isopropyl-1-methyl urea trichloroacetate]
Herbicidal effects Monochoria (monochoria; [5]): 5 | Herbicidal effects Japanese bulrush (Japanese bulrush; [5]): 5 | Herbicidal effects Barnyard-grass (barnyardgrass; Dose 1 kg/HA): 5 | Herbicidal effects Barnyard-grass (barnyardgrass; Dose 4 kg/HA): 5 | Herbicidal effects Crab-grass (crabgrass [1]; Dose 1 kg/HA): 5 | Herbicidal effects Crab-grass (crabgrass [1]; Dose 4 kg/HA): 5 | Herbicidal effects Crabgrass (crabgrass [2]; [4]): 5

CON(C)C(=O)NOc1cc(Cl)ccc1Cl [Compound No. 242, 3-(2,5-Dichlorophenoxy)-1-methoxy-1-methyl urea]
Herbicidal effects Monochoria (monochoria; [5]): 5 | Herbicidal effects Japanese bulrush (Japanese bulrush; [5]): 5 | Herbicidal effects Barnyard-grass (barnyardgrass; Dose 1 kg/HA): 5 | Herbicidal effects Barnyard-grass (barnyardgrass; Dose 4 kg/HA): 5 | Herbicidal effects Crab-grass (crabgrass [1]; Dose 1 kg/HA): 5 | Herbicidal effects Crab-grass (crabgrass [1]; Dose 4 kg/HA): 5 | Herbicidal effects Crabgrass (crabgrass [2]; [6]): 5

COCCNC(=O)NOc1cc(Cl)ccc1Cl [Compound No. 243]
Herbicidal effects Monochoria (monochoria; [5]): 5 | Herbicidal effects Japanese bulrush (Japanese bulrush; [5]): 5 | Herbicidal effects Barnyard-grass (barnyardgrass; Dose 1 kg/HA): 5 | Herbicidal effects Barnyard-grass (barnyardgrass; Dose 4 kg/HA): 5 | Herbicidal effects Crab-grass (crabgrass [1]; Dose 1 kg/HA): 5 | Herbicidal effects Crab-grass (crabgrass [1]; Dose 4 kg/HA): 5 | Herbicidal effects Crabgrass (crabgrass [2]; [6]): 4 (Herbicidal effect (or phytotoxicity) in a range of 80 to 89%)
